Data reported in patent publication US6369251B1, “Method for purification of polyprenyl compounds” (Nikken Chemicals Co., Ltd., priority 1999, dated 2002).

Columns and labels:
[1] = system: hepatic carcinoma; settings: known from literature; cited from earlier work
[2] = Determination of peroxide value by the British Pharmacopeia method (iodometric titration); assay type: physicochemical; settings: sample after recrystallization; about 1 g sample, titration with sodium thiosulfate
Description: The results of purities and determined peroxide values of (2E, 4E, 6E, 10E)-3,7,11,15-tetramethyl-2,4,6,10,14-hexadecapentaenoic acid obtained in Example 1 and Reference Example 3 are shown in Table 1.
The determination of the peroxide values was performed by the method described in the British Pharmacopeia. About 1 g of each sample was accurately weighed in a stoppered Erlenmeyer flask, and the sample was added with chloroform (15 mL) and dissolved. The solution was added with acetic acid (20 mL), and the mixture was shaken gently. Air in the flask was sufficiently substituted with argon atmosphere, and the mixture was added with 1 mL of saturated potassium iodide solution prepared just before use, and the mixture was left stand for 10 minutes in a dark place. Then, the mixture was added with 30 mL of water and shaken vigorously. The liberated iodine was titrated with […] sodium thiosulfate solution (indicator: 2 mL of the starch test solution). The titration was terminated when the purplish red color of the solution disappeared. Correction was made by performing a blank test in the same manner.
The peroxide value was calculated by using the following equation.
Peroxide value (meq/kg)=10f(a−b)/Sampled weight (g) a: Titration volume (mL) of 0.01 mol/L Na2S2O3 solution b: Titration volume (mL) of 0.01 mol/L Na2S2O3 solution in the blank test f: Factor of 0.01 mol/L Na2S2O3 solution

| Compound | effect on recurrence of hepatic carcinoma [1] | Peroxide value [2] [meq/kg] |
| --- | --- | --- |
| CC(C)=CCC/C(C)=C/CC/C(C)=C/C=C/C(C)=C/C(=O)O [(2E, 4E, 6E, 10E)-3,7,11,15-Tetramethyl-2,4,6,10,14-hexadecapentaenoic acid] | suppressing effect on recurrence of hepatic carcinoma |  |
| CC(C)=CCC/C(C)=C/CC/C(C)=C/C=C/C(C)=C/C(=O)O [Example 1, (2E, 4E, 6E, 10E)-3,7,11,15-tetramethyl-2,4,6,10,14-hexadecapentaenoic acid] |  | 0 |
| CC(C)=CCC/C(C)=C/CC/C(C)=C/C=C/C(C)=C/C(=O)O [Reference Example 3, (2E, 4E, 6E, 10E)-3,7,11,15-tetramethyl-2,4,6,10,14-hexadecapentaenoic acid] |  | 3.0 |
